Test results: patent publication EP0612731B1, “Novel guinolone and naphthyridone derivatives” (BAYER AG, priority 1993, dated 1994)

tested on: HIV; experiment: HIV infection in cell culture (syncytium formation in HIV-infected PBLs, modified method of Pauwels et al.); assay type: cell-based; details: Human immunodeficiency virus 1, Lymphocyte, 72 h; HIV-infected normal human blood lymphocytes (PBL's); concentration suppressing 50% (ca. 10 Syncytien) of virus-induced syncytia; microscopic read-out day 3 to 6 after infection, 37°C
Method: Der HIV-Test wurde mit geringen Modifikationen nach der Methode von Pauwels et al. [vgl. Journal of Virological Methods 20, (1988), 309-321] durchgeführt.
Normale menschliche Blutlymphozyten (PBL's) wurden über Ficoll-Hypaque angereichert und im RPMI 1640, 20% fötales Kälberserum mit Phythaemagglutinin (90 µg/ml) und Interleukin-2 (40 U/ml) stimuliert. Zur Infektion mit dem infektiösen HIV wurden PBL's pelletiert und das Zellpellet wurde anschließend in 1 ml HIV-Virusadsorptionslösung suspendiert und 1 Stunde bei 37°C inkubiert.
Die Virusadsorptionslösung wurde zentrifugiert und das infizierte Zellpellet in Wachstumsmedium aufgenommen, so daß 1 x 10^5 Zellen pro ml eingestellt waren. Die derart infizierten Zellen wurden zu 1 x 10^4 Zellen/Napf in die Näpfe von 96er Mikrotiterplatten pipettiert.
Die erste vertikale Reihe der Mikrotiterplatte enthielt nur Wachstumsmedium und Zellen, die nicht infiziert, aber ansonsten genauso wie oben beschrieben, behandelt worden waren (Zellkontrolle). Die zweite vertikale Reihe der Mikrotiterplatte erhielt nur HIV-infizierte Zellen (Viruskontrolle) in Wachstumsmedium. Die übrigen Näpfe enthielten die erfindungsgemäßen Verbindungen in unterschiedlichen Konzentrationen, ausgehend von den Näpfen der 3. vertikalen Reihe der Mikrotiterplatte, von der die Prüfsubstanzen in 2er Schritten 2^10fach verdünnt wurden.
Die Testansätze wurden so lange bei 37°C inkubiert, bis in der unbehandelten Viruskontrolle die für das HIV typische Syncytienbildung auftrat (zwischen Tag 3 und 6 nach Infektion), die dann mikroskopisch ausgewertet wurde. In der unbehandelten Viruskontrolle resultierten unter diesen Testbedingungen etwa 20 Syncytien, während die unbehandelte Zellkontrolle keine Syncytien aufwies.
Die IC50-Werte wurden als die Konzentration der erfindungsgemäßen Verbindungen ermittelt, bei der 50% (ca. 10 Syncytien) der virusinduzierten Syncytien durch die Behandlung mit der erfindungsgemäßen Verbindung unterdruckt waren.

Structure (SMILES)	IC50
COc1cccc(N2CCN(c3cc4c(cc3F)c(=O)c(C(=O)O)cn4-c3ccc(Cn4ccnn4)cc3)CC2)c1 [Beispiel 8]	3 µM
O=C(O)c1cn(-c2ccc(Cn3ccnn3)cc2)c2cc(N3CCN(c4cccc(Cl)c4)CC3)c(F)cc2c1=O [Beispiel 14]	0.7 µM
O=C(O)c1cn(-c2ccc(Cn3ccnn3)cc2)c2nc(N3CCN(c4ccccc4)CC3)c(F)cc2c1=O [Beispiel 20, 6-Fluor-1,4-dihydro-4-oxo-7-(4-phenylpiperazin-1-yl)-1-[4-(1H-1,2,3-triazol-1-yl-methyl)-phenyl]-1,8-naphthyridin-3-carbonsäure]	0.2 µM
O=C(O)c1cn(-c2ccc(Cn3ccnn3)cc2)c2nc(N3CCN(c4cccc(Cl)c4)CC3)c(F)cc2c1=O [Beispiel 23]	0.4 µM
O=C(O)c1cn(-c2ccc(Cn3nccn3)cc2)c2cc(N3CCN(c4cccc(Cl)c4)CC3)c(F)cc2c1=O [Beispiel 31]	0.7 µM
O=C(O)c1cn(-c2ccc(Cn3cncn3)cc2)c2cc(N3CCN(c4ccccc4)CC3)c(F)cc2c1=O [Beispiel 39, 6-Fluor-1,4-dihydro-4-oxo-7-(4-phenylpiperazin-1-yl)-1-[4-(1H-1,2,4-triazol-1-yl-methyl)phenyl]-3-chinolin-carbonsäure]	0.25 µM
O=C(O)c1cn(-c2ccc(Cn3cncn3)cc2)c2nc(N3CCN(c4ccccc4)CC3)c(F)cc2c1=O [Beispiel 50, 6-Fluor-1,4-dihydro-4-oxo-7-(4-phenylpiperazin-1-yl)-1-[4-(1H-1,2,4-triazol-1-yl-methyl)phenyl]-1,8-naphthyridin-3-carbonsäure]	0.5 µM
O=C(O)c1cn(-c2ccc(Cn3cncn3)cc2)c2nc(N3CCN(c4ccc(F)cc4)CC3)c(F)cc2c1=O [Beispiel 51]	0.2 µM
O=C(O)c1cn(-c2cccc(Cn3ccnn3)c2)c2cc(N3CCN(c4cccc(Cl)c4)CC3)c(F)cc2c1=O [Beispiel 69]	0.7 µM
O=C(O)c1cn(-c2cccc(Cn3cncn3)c2)c2nc(N3CCN(c4ccc(Cl)cc4)CC3)c(F)cc2c1=O [Beispiel 92]	0.6 µM
CCOC(=O)c1cn(-c2ccccc2Cn2nccn2)c2cc(N3CCN(c4cccc(Cl)c4)CC3)c(F)cc2c1=O [Beispiel 113]	2 µM
CCOc1ccccc1N1CCN(c2c(F)cc3c(=O)c(C(=O)O)cn(-c4ccc(Cn5cncn5)cc4)c3c2F)CC1 [Beispiel 146]	0.7 µM
